Assay results reported in US20090191193A1, “Aryl Vinyl Sulfides, Sulfones, Sulfoxides and Sulfonamides, Derivatives Thereof and Therapeutic Uses Thereof” (TEMPLE UNIVERSITY-OF THE COMMONWEALTH SYSTEM OF HIGHER …, priority 2006, published 2009).

Tests used:
[1] = system: K562 (chronic myelogenous leukaemia); test: Effect on tumor cell lines, viable cell count by trypan blue exclusion (Latham et al.): K562; format: cell-based; details: K562 chronic myelogenous leukaemia cells, viable cell count 96 hours after treatment
Experimental: (§1) The effect of the compounds of the invention on tumor cells was determined by the assay described by Latham et al., Oncogene 12:827-837 (1996). Tumor cells DU145 (prostate cancer), K562 (chronic myelogenous leukaemia), BT20 (breast carcinoma), H157 (non small cell lung carcinoma), or DLD1 (colon carcinoma) were plated in 6-well dishes at a cell density of 1.0×10^5 cells per 35-mm^2 well. […] The total number of viable cells was determined 96 hours later by trypsinizing the wells and counting the number of viable cells, as determined by trypan blue exclusion, using a hemacytometer. Normal HFL cells were treated with the same compounds under the same conditions of concentration and time.

DU145 (prostate cancer) = test: Effect on tumor cell lines, viable cell count by trypan blue exclusion (Latham et al.): DU145; format: cell-based; details: DU145 prostate cancer cells, viable cell count 96 hours after treatment
Experimental: as §1

| Compound | melting point [°C] | IC50 (DU145 (prostate cancer); Homo sapiens, DU-145, 96 h) [µM] | further results |
| --- | --- | --- | --- |
| NC(=O)/C(=C\c1ccc(Cl)cc1Cl)S(=O)(=O)Cc1ccccc1Cl [Example 156] | 158 to 164 | – | – |
| N#C/C(=C\c1ccc(-c2ccccc2)cc1)S(=O)(=O)Cc1ccccc1 [Example 138] | – | – | IC50 [1]: > 100 µM; IC50 (DU145 (prostate cancer)): > 100 µM |
| COc1cc(OC)c(/C=C(\C(N)=O)S(=O)(=O)Cc2ccc(Cl)cc2Cl)c(OC)c1 [Example 152] | 201 to 204 | – | – |
| N#C/C(=C\c1c(F)c(F)c(F)c(F)c1F)S(=O)(=O)Cc1ccc(F)cc1 [Example 33] | 156 to 158 | 2.5 | – |
| COc1ccc(CS(=O)(=O)/C(C#N)=C/c2ccoc2)cc1 [Example 12] | 150 to 153 | – | – |
| COc1ccc(CS(=O)(=O)/C(C#N)=C/c2c(F)c(F)c(F)c(F)c2F)cc1OC [Example 32] | – | 10 | – |
| Cc1ccc(C)c(/C=C(\C(N)=O)S(=O)(=O)Cc2ccc(Cl)cc2)c1 [Example 157] | 79 to 82 | – | – |
| N#C/C(=C\c1ccc(F)cc1F)S(=O)(=O)Cc1ccc(Br)cc1 [Example 4] | 146 to 148 | – | – |
| CC(=O)c1ccc(/C=C(\C(N)=O)S(=O)(=O)Cc2ccc(Cl)cc2Cl)cc1 [Example 167] | 207 to 210 | – | – |
| COc1ccc(CS(=O)(=O)/C(C#N)=C/c2ccc(F)c(N)c2)cc1 [Example 6] | 146 to 148 | – | – |
| NC(=O)/C(=C\c1cccc(Cl)c1Cl)S(=O)(=O)Cc1ccc(F)cc1 [Example 155] | 188 to 193 | – | – |
| COc1ccc(CS(=O)(=O)/C(C#N)=C/c2ccc3[nH]c(=O)oc3c2)cc1 [Example 23, (E)-2-[(4-methoxyphenyl)methanesulfonyl]-3-(2-benzoxazolon-6-yl)acrylonitrile] | 208 to 210 | 50 | – |
| NC(=O)/C(=C\c1cc(F)c(F)cc1F)S(=O)(=O)Cc1ccc(F)cc1 [Example 162] | 168 to 170 | – | – |
| COc1ccc(CS(=O)(=O)/C(C#N)=C/c2ccc(F)cc2)cc1 [Example 7] | 171 to 173 | 100 | – |
| N#C/C(=C\c1ccc(O)c(O)c1)S(=O)(=O)Cc1ccc(Cl)cc1 [Example 24] | 178 to 180 | 10 | – |
| COc1ccc(CS(=O)(=O)/C(C#N)=C/c2ccsc2)cc1 [Example 13] | 142 to 144 | – | – |
| COc1ccc(S(=O)(=O)/C(=C/c2ccc(F)cc2)C(N)=O)cc1 [Example 181] | 154 to 156 | – | – |
| COc1ccc(S(=O)(=O)/C(=C/c2c(OC)cc(OC)cc2OC)C(N)=O)cc1 [Example 182] | 172 to 175 | – | – |
| COc1ccc(CS(=O)(=O)/C(C#N)=C/c2ccc(OC)c(OC)c2)cc1 [Example 26] | 156 to 158 | – | – |
| NC(=O)/C(=C\c1ccc(Br)cc1)S(=O)(=O)Cc1ccc(F)cc1 [Example 161] | 199 to 200 | – | – |
| COc1ccc(NS(=O)(=O)/C(C#N)=C/c2cc(Cl)cc(Cl)c2Cl)cc1 [Example 294] | 180 to 181 | – | IC50 ([1]; Homo sapiens, K562, 96 h): < 1 µM |

| Compound | melting point [°C] | IC50 (DU145 (prostate cancer); Homo sapiens, DU-145, 96 h) [µM] | further results |
| --- | --- | --- | --- |
| COc1ccc(CS(=O)(=O)/C(C#N)=C/c2ccc3oc(=O)[nH]c3c2)cc1OC [Example 30] | 174 to 176 | 100 | – |
| COc1ccc(CS(=O)(=O)/C(C#N)=C/c2ccc(-c3ccccc3)cc2)cc1 [Example 140] | – | – | IC50 [1]: > 100 µM; IC50 (DU145 (prostate cancer)): > 100 µM |
| CSc1ccc(/C=C(\C#N)S(=O)(=O)Cc2ccc(Cl)cc2Cl)cc1 [Example 76] | – | – | IC50 [1]: 50 to 100 µM; IC50 (DU145 (prostate cancer)): 50 to 100 µM |
| COc1ccc(CS(=O)(=O)/C(C#N)=C/c2ccc([N+](=O)[O-])cc2)cc1 [Example 10] | 174 to 176 | – | – |
| NC(=O)/C(=C\c1ccc(Cl)cc1Cl)S(=O)(=O)Cc1ccc(Cl)cc1 [Example 165] | 206 to 210 | – | – |
| NC(=O)/C(=C\c1ccc(F)cc1Cl)S(=O)(=O)Cc1ccc(Cl)cc1 [Example 166] | 194 to 199 | – | – |
| NC(=O)/C(=C\c1ccc(Br)cc1)S(=O)(=O)Cc1ccc(Cl)cc1Cl [Example 153] | 195 to 196 | – | – |
| COc1ccc(CS(=O)(=O)/C(C#N)=C/c2ccc3oc(=O)[nH]c3c2)cc1 [Example 22] | 210 to 212 | 10 | – |
| COc1ccc(CS(=O)(=O)/C(C#N)=C/c2ccc3[nH]c(=O)oc3c2)cc1OC [Example 29] | – | 100 | – |
| COc1cc(OC)c(/C=C(\[N+](=O)[O-])S(=O)(=O)c2ccccc2)c(OC)c1 [Example 187] | 176 to 180 | – | – |
| COc1ccc(CS(=O)(=O)/C(C#N)=C/c2ccc(N)cc2)cc1 [Example 5] | 140 to 142 | 75 | – |
| COc1cc(OC)c(/C=C(\C#N)S(=O)(=O)Cc2ccc(OC)c([N+](=O)[O-])c2)c(OC)c1 [Example 34] | 184 to 186 | – | – |
| COc1ccc(CS(=O)(=O)/C(C#N)=C/c2c(OC)cccc2OC)cc1 [Example 8] | 108 to 110 | 75 | – |
| Cc1cc(C)cc(/C=C(\C(N)=O)S(=O)(=O)Cc2ccc(Cl)cc2)c1 [Example 163] | 172 to 176 | – | – |
| CCOc1ccc(/C=C(\C(N)=O)S(=O)(=O)Cc2ccc(F)cc2)cc1OC [Example 164, (E)-2-[(4-fluorophenyl)methanesulfonyl]-3-(4-ethoxy-3-methoxyphenyl)acrylamide] | 197 to 202 | – | – |
| NC(=O)/C(=C\c1cccc(Cl)c1Cl)S(=O)(=O)Cc1ccc([N+](=O)[O-])cc1 [Example 169] | 200 to 202 | – | – |
| COc1ccc(NS(=O)(=O)/C(C#N)=C/c2c(OC)cccc2OC)cc1 [Example 193] | 154 to 156 | – | – |
| CCOc1ccc(/C=C(\C(N)=O)S(=O)(=O)Cc2ccc([N+](=O)[O-])cc2)cc1OC [Example 159, (E)-2-[(4-nitrophenyl)methanesulfonyl]-3-(4-ethoxy-3-methoxyphenyl)acrylamide] | 235 to 240 | – | – |
| COc1cc(OC)c(/C=C(\[N+](=O)[O-])S(=O)(=O)c2ccc(C)cc2)c(OC)c1 [Example 185] | 192 to 194 | 50 | – |
| COc1ccc(NS(=O)(=O)/C(C#N)=C/c2ccc(C)c(C)c2)cc1 [Example 203] | 152 to 154 | > 100 | – |
| COc1ccc(/C=C(\C(N)=O)S(=O)(=O)Cc2ccc(Cl)cc2Cl)cc1O [Example 154, (E)-2-[(2,4-dichlorophenyl)methanesulfonyl]-3-(3-hydroxy-4-methoxyphenyl)acrylamide] | 185 to 189 | – | – |

| Compound | melting point [°C] | IC50 (DU145 (prostate cancer); Homo sapiens, DU-145, 96 h) [µM] | further results |
| --- | --- | --- | --- |
| COc1ccc(NS(=O)(=O)/C(C#N)=C/c2cc(OC)cc(OC)c2)cc1 [Example 201] | 167 to 168 | > 100 | – |
| N#C/C(=C\c1ccc([N+](=O)[O-])cc1)S(=O)(=O)Cc1ccc(Br)cc1 [Example 31] | 138 to 142 | – | – |
| COc1ccc(CS(=O)(=O)/C(C#N)=C/c2ccc(F)cc2Cl)cc1 [Example 15] | 138 to 140 | 25 | – |
| Cc1ccc(C)c(/C=C(\C(N)=O)S(=O)(=O)Cc2ccc(F)cc2)c1 [Example 160] | 172 to 176 | – | – |
| COc1cc(OC)c(/C=C(\[N+](=O)[O-])S(=O)(=O)c2ccc(Br)cc2)c(OC)c1 [Example 186] | 184 to 186 | 25 | – |
| COc1cc(OC)c(/C=C(\C(N)=O)S(=O)(=O)c2ccccc2)c(OC)c1 [Example 178] | 164 to 167 | – | – |
| COc1ccc(CS(=O)(=O)/C(=C/c2c(OC)cc(OC)cc2OC)C(N)=O)cc1 [Example 171] | 168 to 171 | – | – |
| Cc1ccc(/C=C(\C(N)=O)S(=O)(=O)Cc2ccc(Cl)cc2Cl)cc1C [Example 151] | 193 to 196 | – | – |
| COc1ccc(CS(=O)(=O)/C(C#N)=C/c2ccccc2OC)cc1 [Example 9] | 143 to 145 | – | – |
| COc1ccc(CS(=O)(=O)/C(C#N)=C/c2c(OC)cc(OC)cc2OC)cc1 [Example 1] | 178 to 180 | 25 | – |
| COc1ccc(CS(=O)(=O)/C(C#N)=C/c2ccc(O)c(O)c2)cc1 [Example 25] | 144 to 146 | 10 | – |
| COc1ccc(CS(=O)(=O)/C(C#N)=C/c2ccc3c(c2)OCO3)cc1 [Example 27, (E)-2-[(4-methoxyphenyl)methanesulfonyl]-3-(1,3-benzodioxole-5-yl)acrylonitrile] | 186 to 188 | 100 | – |
| N#C/C(=C\c1ccccc1OC(F)F)S(=O)(=O)Cc1ccc(Br)cc1 [Example 14] | 204 to 206 | – | – |
| COc1ccc(CS(=O)(=O)/C(C#N)=C/c2ccc(O)c(O)c2)cc1OC [Example 28] | 196 to 198 | – | – |
| CCOc1ccc(/C=C(\C(N)=O)S(=O)(=O)Cc2ccc(Cl)cc2Cl)cc1OC [Example 168, (E)-2-[(2,4-dichlorophenyl)methanesulfonyl]-3-(4-ethoxy-3-methoxyphenyl)acrylamide] | 245 to 247 | – | – |
| COc1ccc(CS(=O)(=O)/C(C#N)=C/c2ccc(F)cc2F)cc1 [Example 2] | 138 to 140 | 100 | – |
| COc1ccc(CS(=O)(=O)/C(C#N)=C/c2ccc(F)c([N+](=O)[O-])c2)cc1 [Example 3] | – | 50 | – |
| COc1ccc(CS(=O)(=O)/C(C#N)=C/c2ccc(C#N)cc2F)cc1 [Example 17] | 112 to 114 | – | – |
| CCOc1ccc(/C=C(\C(N)=O)S(=O)(=O)Cc2ccc(Cl)cc2)cc1OC [Example 158, (E)-2-[(4-chlorophenyl)methanesulfonyl]-3-(4-ethoxy-3-methoxyphenyl)acrylamide] | 195 to 197 | – | – |
